Patent EP3421037A1, “RLS TREATMENT WITH INHIBITORS OF THE CEREBLON (CRBN) PROTEIN” (Klinikum rechts der Isar der Technischen Universität München, priority 2017, dated 2019)

Test system: RLS patient
Assay: Treatment of one RLS patient with thalidomide; RLS severity and sleep disturbance observed weekly with four questionnaires
Assay type: in vivo, human
Conditions: for IRLSSG severity: 100 mg thalidomide daily plus two tablets pramipexole 0.18 mg, scale 0 to 40; for ESS sleepiness: Epworth Sleepiness Scale 0 to 24; for MOS sleep disturbance: range 0-100%; for RLS-6 score: scale 0 to 10
Experimental: The patient had been diagnosed with RLS but had suffered from the disease since childhood. They had family history of RLS with their parent and two siblings being affected.
The patient was washed off the concurrent medication, with the exception of two tablets of 0.18 mg pramipexole, which was maintained throughout the study.
After the baseline period, they were prescribed 100 mg of the inhibitor of the cereblon (CRBN) thalidomide (i.e. 2-(2,6-dioxopiperidin-3-yl)-2,3-dihydro-1H-isoindole-1,3-dione) daily, which they continued taking for three weeks in addition to their two tables pramipexol 0,18 mg treatment.
Throughout the six-week period, the RLS severity and sleep disturbance of the patient were weekly observed with four different questionnaires: • 1. IRLSSG severity scale: This is the gold standard questionnaire to evaluate RLS severity both in clinical practice and in pharmaceutical studies. The scale is based on 10 questions answered by the patient, and final severity score ranges from 0 to 40. On the IRLSSG scale, 0 points corresponds to no RLS, 1-10 points corresponds to mild RLS, 11-20 points corresponds to moderate RLS, 21-30 points corresponds to severe RLS and 31-40 points corresponds to very severe RLS. • 2. RLS-6 scale. This is an alternative scale used to evaluate different aspects of RLS. The average score may be used to evaluate the overall severity of RLS. The scale ranges from 0 to 10, with 0 indicating no RLS and 10 being the most severe RLS severity score. • 3. Epworth Sleepiness Scale (ESS). This is a gold standard questionnaire used to evaluate daytime sleepiness in clinical practice and in pharmaceutical studies. The scale ranges from 0 to 24, where 0-5 corresponds to normal daytime sleepiness, 6-10 corresponds to higher normal daytime sleepiness, 11-12 corresponds to mild excessive daytime sleepiness, 13-15 corresponds to moderate excessive daytime sleepiness and 16-24 corresponds to severe daytime sleepiness. • 4. MOS Sleep Scale. This is a questionnaire used to evaluate sleep disturbance, sleep efficiency, sleep adequacy and other related parameters with different subscores derived from the answers. In this study, the sleep disturbance score was used. The range is 0-100%, 100% indicating the most severe sleep disturbance.

[1] = week 4, 100 mg thalidomide daily plus pramipexole
[2] = week 5, 100 mg thalidomide daily plus pramipexole
[3] = week 6, 100 mg thalidomide daily plus pramipexole

## O=C1CCC(N2C(=O)c3ccccc3C2=O)C(=O)N1 (stereo not shown) [Thalidomide, 2-(2,6-dioxopiperidin-3-yl)-2,3-dihydro-1H-isoindole-1,3-dione]
Week 4 (first treatment week)
  IRLSSG severity: 21 points
[1]
  ESS sleepiness: 4
  MOS sleep disturbance: 31.3%
  RLS-6 score: 4.7
Week 5 (second treatment week)
  IRLSSG severity: 20 points
[2]
  ESS sleepiness: 7
  MOS sleep disturbance: 46.3%
  RLS-6 score: 2.7
Week 6 (third treatment week)
  IRLSSG severity: 16 points
[3]
  ESS sleepiness: 3
  MOS sleep disturbance: 43.8%
  RLS-6 score: 2
Weeks 4-6, 100 mg thalidomide daily plus pramipexole, compared with baseline weeks 1-3
  treatment success of RLS on all four measured scores: significantly benefitted
